Results reported in patent US20100267561A1, “HERBICIDAL PYRIDAZINONE DERIVATIVES” (priority 2007, published 2010).

How the values were obtained:
Test in all cases: Test B pre-/postemergence plant response
Type in all cases: in vivo
corn (Zea mays) = system: corn (Zea mays)
Procedure, shortened: (§1)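 Preemergence and postemergence (plants 2-18 cm, 1- to 4-leaf stage) applications used test chemicals in a non-phytotoxic solvent with surfactant. Plants were held in a greenhouse 13 to 15 days, then rated visually against controls on a 0-100 scale (0 no effect, 100 complete control).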

[1] = system: downy bromegrass (Bromus tectorum)
Procedure, shortened: as §1

[2] = system: catchweed bedstraw (Galium aparine); details: Preemergence
Procedure, shortened: as §1

[3] = system: giant foxtail (Setaria faberii)
Procedure, shortened: as §1

[4] = system: blackgrass (Alopecurus myosuroides)
Procedure, shortened: as §1

[5] = system: johnsongrass (Sorghum halepense)
Procedure, shortened: as §1

[6] = system: surinam grass (Brachiaria decumbens)
Procedure, shortened: as §1

[7] = system: morningglory (Ipomoea coccinea)
Procedure, shortened: as §1

kochia (Kochia scoparia) = system: kochia (Kochia scoparia)
Procedure, shortened: as §1

[8] = system: common (oilseed) sunflower (Helianthus annuus); details: Preemergence
Procedure, shortened: as §1

[9] = system: green foxtail (Setaria viridis)
Procedure, shortened: as §1

[10] = system: pigweed (Amaranthus retroflexus)
Procedure, shortened: as §1

[11] = system: woolly cupgrass (Eriochloa villosa)
Procedure, shortened: as §1

[12] = system: eastern black (E.B.) nightshade (Solanum ptycanthum); details: Preemergence
Procedure, shortened: as §1

[13] = Postemergence, 31 g ai/ha, scale 0 to 100, 0 no effect, 100 complete control
[14] = Postemergence, 62 g ai/ha, scale 0 to 100
[15] = Postemergence, 125 g ai/ha, scale 0 to 100
[16] = Preemergence, 31 g ai/ha, 0 to 100 scale, 0 no effect, 100 complete control
[17] = Preemergence, 62 g ai/ha, scale 0 to 100
[18] = Preemergence, 125 g ai/ha, scale 0 to 100
[19] = Preemergence, 250 g ai/ha, scale 0 to 100
[20] = Postemergence, 250 g ai/ha, scale 0 to 100
[21] = 31 g ai/ha, 0 to 100 scale, 0 no effect, 100 complete control

Cc1nn(C)c(=O)c(-n2nc(-c3ccc(Cl)cc3)cc2C)c1O [Compound 15]
Plant response rating, Corn (corn (Zea mays); [13]): 90
Plant response rating, Corn (corn (Zea mays); [14]): 95
Plant response rating, Corn (corn (Zea mays); [15]): 95
Plant response rating, Corn (corn (Zea mays); [16]): 50
Plant response rating, Corn (corn (Zea mays); [17]): 98
Plant response rating, Corn (corn (Zea mays); [18]): 100
Plant response rating, Corn (corn (Zea mays); [19]): 100
Plant response rating, Bromegrass, Downy [1, 13]: 10
Plant response rating, Bromegrass, Downy [1, 14]: 15
Plant response rating, Bromegrass, Downy [1, 15]: 45
Plant response rating, Bromegrass, Downy [1, 20]: 60
Plant response rating, Bromegrass, Downy [1, 16]: 50
Plant response rating, Bromegrass, Downy [1, 17]: 55
Plant response rating, Bromegrass, Downy [1, 18]: 90
Plant response rating, Bromegrass, Downy ([1]; Preemergence, 250 g ai/ha, scale 0 to 100 (0 no effect, 100 complete control)): 98
Plant response rating, Galium [2, 21]: 0
Plant response rating, Galium ([2]; 62 g ai/ha, scale 0 to 100): 0
Plant response rating, Galium ([2]; 125 g ai/ha, scale 0 to 100): 10
Plant response rating, Galium ([2]; 250 g ai/ha, scale 0 to 100): 100
Plant response rating, Foxtail, Giant [3, 13]: 95
Plant response rating, Foxtail, Giant [3, 14]: 100
Plant response rating, Foxtail, Giant [3, 15]: 100
Plant response rating, Foxtail, Giant [3, 20]: 100
Plant response rating, Foxtail, Giant [3, 16]: 90
Plant response rating, Foxtail, Giant [3, 17]: 100
Plant response rating, Foxtail, Giant [3, 18]: 100
Plant response rating, Foxtail, Giant [3, 19]: 100
Blackgrass plant response rating ([4]; 250 g ai/ha, preemergence, 0-100 scale): 100
Plant response rating, Blackgrass [4, 13]: 90
Plant response rating, Blackgrass [4, 14]: 95
Plant response rating, Blackgrass [4, 15]: 95
Plant response rating, Blackgrass [4, 20]: 98
Plant response rating, Blackgrass [4, 16]: 100
Plant response rating, Blackgrass [4, 17]: 100
Plant response rating, Blackgrass [4, 18]: 100
Plant response rating, Johnsongrass [5, 13]: 70
Plant response rating, Johnsongrass [5, 14]: 80
Plant response rating, Johnsongrass [5, 15]: 100
Plant response rating, Johnsongrass [5, 20]: 100
Plant response rating, Johnsongrass [5, 16]: 70
Plant response rating, Johnsongrass [5, 17]: 95
Plant response rating, Johnsongrass [5, 18]: 98
Plant response rating, Johnsongrass [5, 19]: 100
Plant response rating, Surinam Grass [6, 13]: 100
Plant response rating, Surinam Grass [6, 14]: 100
Plant response rating, Surinam Grass [6, 15]: 100
Plant response rating, Surinam Grass [6, 20]: 100
Plant response rating, Surinam Grass [6, 16]: 100
Plant response rating, Surinam Grass [6, 17]: 100
Plant response rating, Surinam Grass [6, 18]: 100
Plant response rating, Surinam Grass [6, 19]: 100
Plant response rating, Morningglory [7, 13]: 0
Plant response rating, Morningglory [7, 14]: 0
Plant response rating, Morningglory [7, 15]: 0
Plant response rating, Morningglory [7, 20]: 0
Plant response rating, Morningglory [7, 16]: 0
Plant response rating, Morningglory [7, 18]: 0
Plant response rating, Kochia (kochia (Kochia scoparia); [13]): 0
Plant response rating, Kochia (kochia (Kochia scoparia); [14]): 0
Plant response rating, Kochia (kochia (Kochia scoparia); [15]): 0
Plant response rating, Kochia (kochia (Kochia scoparia); [20]): 0
Plant response rating, Kochia (kochia (Kochia scoparia); [17]): 0
Plant response rating, Sunflower [8, 21]: 0
Plant response rating, Sunflower ([8]; 62 g ai/ha, scale 0 to 100): 0
Plant response rating, Sunflower ([8]; 250 g ai/ha, scale 0 to 100): 60
Plant response rating, Foxtail, Green [9, 13]: 95
Plant response rating, Foxtail, Green [9, 14]: 95
Plant response rating, Foxtail, Green [9, 15]: 100
Plant response rating, Foxtail, Green [9, 20]: 100
Plant response rating, Foxtail, Green [9, 16]: 100
Plant response rating, Foxtail, Green [9, 17]: 100
Plant response rating, Foxtail, Green [9, 18]: 100
Plant response rating, Foxtail, Green [9, 19]: 100
Plant response rating, Pigweed [10, 13]: 0
Plant response rating, Pigweed [10, 14]: 0
Plant response rating, Pigweed [10, 15]: 0
Plant response rating, Pigweed [10, 20]: 0
Plant response rating, Pigweed [10, 16]: 0
Plant response rating, Pigweed [10, 17]: 0
Plant response rating, Pigweed [10, 18]: 0
Plant response rating, Pigweed [10, 19]: 0
Plant response rating, Cupgrass, Woolly [11, 14]: 100
Plant response rating, Cupgrass, Woolly [11, 15]: 100
Plant response rating, Cupgrass, Woolly [11, 20]: 100
Plant response rating, Cupgrass, Woolly [11, 16]: 60
Plant response rating, Cupgrass, Woolly [11, 17]: 85
Plant response rating, Cupgrass, Woolly [11, 18]: 90
Plant response rating, Cupgrass, Woolly [11, 19]: 98
Plant response rating, Nightshade, E. B. [12, 21]: 0
Plant response rating, Nightshade, E. B. ([12]; 62 g ai/ha, scale 0 to 100): 0
Plant response rating, Nightshade, E. B. ([12]; 125 g ai/ha, scale 0 to 100): 0
Plant response rating, Nightshade, E. B. ([12]; 250 g ai/ha, scale 0 to 100): 0
